The numbers were not newly measured in US6090854A, “Aryloxyanilides and related compounds” (Bristol-Meyers Company, priority 1999, dated 2000), which cites them from elsewhere.

The subject of one data set is circadian rhythms. Conditions: exogenous melatonin, rats; Cassone et al. 1986.

As for `COc1ccc2[nH]cc(CCNC(C)=O)c2c1` [melatonin, N-acetyl-5-methoxytryptamine], the oral bioavailability entry was “often low and variable”. In addition, the “synchronization of circadian rhythms” value with circadian rhythms is “found to synchronize circadian rhythms in rats”.
